# Results: publication PMC5467912, “Asymmetric regulation of quorum-sensing receptors drives autoinducer-specific gene expression programs in Vibrio cholerae” (PLoS Genetics, 2017)
# Values joined by “and” are separate entries in the source; they are usually repeats but may differ in a detail not shown here. Equal entries are not always repeated. Where two headings read alike, the source gives them in different places.
# Assays:
# [1] = system: QS-controlled luxCDABE operon; format: cell-based; settings: for Light production: LuxS-CqsA- +CAI-1 5 μM; for RLU: Strain AH371
# [2] = system: hapA; format: cell-based; settings: ΔcqsA ΔluxS strain, HCD
# [3] = system: T1, WT CqsS; format: biochemical; settings: for % Total Phosphorylation: CqsS WT
# T1 construct: made in house; host or cells: E. coli C43 (DE3), pET21b; used as inverted membrane vesicles
# [4] = system: CqsS C170Y; assay: CqsS-dependent repression of qrr4-gfp, CqsS C170Y (Fig 7C); format: cell-based, Vibrio cholerae; settings: Treatment 1uM; CqsS mutant C170Y
# [5] = molecular target: T2, CqsS (Vibrio cholerae serotype O1, UniProt Q9KM66); format: cell-based; settings: Strain WN1102
# T2 construct: endogenous in cells; host or cells: V. cholerae WN1102 (ΔcqsA ΔluxQ/pBB1), derived from C6706str2
smiles,measurement,setting,value
"CCCCCCCCCC(=O)[C@@H](O)CC [CAI-1, (S)-3-hydroxytridecan-4-one]",Light production,[1]; OD600 0.0198,6464646 RLU
same,Light production,[1]; OD600 0.0375,5626666 RLU
same,Light production,[1]; OD600 0.256,957031 RLU
same,Light production,[1]; OD600 0.663,472096 RLU
same,Light production,[1]; OD600 0.982,378819 RLU
same,Light production,[1]; OD600 1.101,133515000 RLU
same,RLU,[1]; agonist 0.0476837 nM,5.19E+03 RLU and 2.61E+03 RLU
same,RLU,[1]; agonist 0.762939 nM,2.58E+03 RLU and 5.16E+03 RLU and 2.67E+03 RLU
same,RLU,[1]; agonist 3.05176 nM,5.00E+03 RLU and 2.56E+03 RLU and 2.61E+03 RLU
same,RLU,[1]; agonist 48.8281 nM,1.58E+04 RLU and 1.61E+04 RLU and 1.60E+04 RLU
same,RLU,[1]; agonist 195.312 nM,2.98E+05 RLU and 2.86E+05 RLU and 2.15E+05 RLU
same,RLU,[1]; agonist 781.25 nM,3.60E+06 RLU and 4.20E+06 RLU and 3.87E+06 RLU
same,RLU,[1]; agonist 3125 nM,1.30E+07 RLU and 1.41E+07 RLU and 1.40E+07 RLU
same,RLU,[1]; agonist 12500 nM,1.88E+07 RLU and 2.11E+07 RLU and 2.10E+07 RLU
same,RLU,[1]; agonist 50000 nM,1.88E+07 RLU and 1.96E+07 RLU and 1.89E+07 RLU
same,increase in light production,"[1]; saturating autoinducer, HCD, vs untreated ΔcqsA ΔluxS","100,000 fold"
same,increase in hapA expression,[2],over 50 fold
same,% Total Phosphorylation,[3]; Agonist 0.01 uM,102.493% and 101.697% and 101.306%
same,% Total Phosphorylation,[3]; Agonist 0.1 uM,89.3767% and 102.409% and 93.98%
same,% Total Phosphorylation,[3]; Agonist 0.5 uM,97.7615% and 100.304% and 88.309% and 81.2302% and 104.248% and 84.8997% and 78.17% and 83.6501%
same,% Total Phosphorylation,[3]; Agonist 1 uM,89.5575% and 94.3418% and 94.4031% and 65.5157% and 64.6244%
same,% Total Phosphorylation,[3]; Agonist 2.5 uM,63.4493% and 51.2966% and 78.14% and 56.8331% and 55.38%
same,% Total Phosphorylation,[3]; Agonist 5 uM,72.2411% and 75.0851% and 56.1286% and 43.0708% and 37.87% and 49.5683%
same,% Total Phosphorylation,[3]; Agonist 75 uM,26.5628% and 23.1908% and 29.77% and 22.6184%
same,% Total Phosphorylation,[3]; Agonist 500 uM,13.8148% and 19.6183% and 26.8103% and 17.4064%
same,% Total Phosphorylation,[3]; Agonist 1000 uM,22.144% and 17.5686%
same,inhibition of WT CqsS autophosphorylation,[3]; saturating concentration (Fig 7B),80%
same,Qrr4-GFP/OD600,[4],23520280 and 22034610 and 28130220
same,RLU,[5]; CAI-1 0.0119209 nM,2.86E+07 RLU
same,RLU,[5]; CAI-1 0.0476837 nM,2.99E+07 RLU
same,RLU,[5]; CAI-1 0.190735 nM,2.91E+07 RLU
same,RLU,[5]; CAI-1 0.762939 nM,2.65E+07 RLU
same,RLU,[5]; CAI-1 3.05176 nM,3.77E+07 RLU
same,RLU,[5]; CAI-1 12.207 nM,1.29E+08 RLU
same,RLU,[5]; CAI-1 48.8281 nM,1.08E+09 RLU
same,RLU,[5]; CAI-1 195.312 nM,1.14E+10 RLU
same,RLU,[5]; CAI-1 781.25 nM,7.27E+10 RLU
same,RLU,[5]; CAI-1 3125 nM,1.12E+11 RLU
same,RLU,[5]; CAI-1 12500 nM,1.47E+11 RLU
same,RLU,[5]; CAI-1 50000 nM,1.61E+11 RLU
